According to ChEMBL document CHEMBL3621131, “Current developments of coumarin-based anti-cancer agents in medicinal chemistry” (Eur J Med Chem, 2015):
Values after ≈ are worked out from the molar mass of the structure shown. Each block holds one molecule with its values, some of them ahead of it.

Legend:
DU-145 [1] = experiment: Antiproliferative activity against human DU145 cells assessed as growth inhibition by tryphan blue exclusion method; format: functional
MCF7 [2] = experiment: Cytotoxicity against human MCF7 cells assessed as cell viability incubated for 72 hrs by SRB assay; format: functional, cell-based; conditions: MCF7, 72 h
HepG2 [3] = experiment: Cytotoxicity against human HepG2 cells assessed as cell viability incubated for 72 hrs by SRB assay; format: functional, cell-based; conditions: HepG2, 72 h
NCI-H460 = experiment: Antiproliferative activity against human NCI-H460 cells assessed as growth inhibition; format: functional, cell-based
HCT-15 = experiment: Cytotoxicity against human HCT15 cells assessed as cell viability incubated for 72 hrs by SRB assay; format: functional, cell-based; conditions: HCT-15, 72 h
MCF7 [4] = experiment: Antitumor activity against human MCF7 cells assessed as cell viability by MTT assay; format: functional, cell-based
SK-N-MC = experiment: Cytotoxicity against human SK-N-MC cells as cell viability by MTT assay; format: functional, cell-based
MDA-MB-231 [5] = experiment: Cytotoxicity against human MDA-MB-231 cells assessed as cell viability by MTT assay; format: functional, cell-based
KB = experiment: Antiproliferative activity against human KB cells assessed as growth inhibition; format: functional, cell-based
A549 = experiment: Antitumor activity against human A549 cells assessed as cell viability incubated for 72 hrs by MTT assay; format: functional, cell-based; conditions: A549, 72 h
[6] = target: T1, M-phase inducer phosphatase 1 (Homo sapiens, UniProt P30304); experiment: Inhibition of human CDC25A phosphatase
T1 sequence (P30304 whole entry): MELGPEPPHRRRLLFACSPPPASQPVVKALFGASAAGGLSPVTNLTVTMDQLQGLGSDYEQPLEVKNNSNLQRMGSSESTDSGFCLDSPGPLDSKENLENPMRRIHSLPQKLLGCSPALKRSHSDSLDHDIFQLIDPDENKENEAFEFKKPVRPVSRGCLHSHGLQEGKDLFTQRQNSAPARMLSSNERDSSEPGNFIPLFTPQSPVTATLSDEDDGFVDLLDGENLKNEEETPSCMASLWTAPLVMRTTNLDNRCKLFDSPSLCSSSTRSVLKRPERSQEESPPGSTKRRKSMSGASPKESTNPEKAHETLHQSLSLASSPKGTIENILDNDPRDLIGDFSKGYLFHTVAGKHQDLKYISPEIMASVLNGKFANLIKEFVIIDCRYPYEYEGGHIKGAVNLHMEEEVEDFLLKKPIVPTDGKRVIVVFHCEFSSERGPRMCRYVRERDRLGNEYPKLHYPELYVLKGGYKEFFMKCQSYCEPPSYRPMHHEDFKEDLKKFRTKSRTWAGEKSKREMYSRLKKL

[7] = target: T2, M-phase inducer phosphatase 2 (Homo sapiens, UniProt P30305); experiment: Inhibition of human CDC25B phosphatase
T2 sequence (P30305 whole entry): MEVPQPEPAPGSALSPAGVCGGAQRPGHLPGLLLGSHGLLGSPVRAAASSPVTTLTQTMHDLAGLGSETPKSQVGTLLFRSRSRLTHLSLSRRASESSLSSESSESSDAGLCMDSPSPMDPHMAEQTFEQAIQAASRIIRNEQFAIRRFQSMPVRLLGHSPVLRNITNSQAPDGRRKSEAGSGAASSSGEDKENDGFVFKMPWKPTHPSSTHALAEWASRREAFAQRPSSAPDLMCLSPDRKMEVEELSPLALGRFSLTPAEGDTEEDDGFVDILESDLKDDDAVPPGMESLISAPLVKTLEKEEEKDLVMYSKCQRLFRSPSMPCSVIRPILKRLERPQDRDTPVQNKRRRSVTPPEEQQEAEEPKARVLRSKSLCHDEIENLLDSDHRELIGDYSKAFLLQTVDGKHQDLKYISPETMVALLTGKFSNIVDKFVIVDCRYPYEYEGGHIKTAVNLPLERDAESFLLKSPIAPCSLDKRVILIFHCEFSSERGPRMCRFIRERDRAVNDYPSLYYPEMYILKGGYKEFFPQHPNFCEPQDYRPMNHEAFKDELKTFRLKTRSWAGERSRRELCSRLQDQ

[8] = target: T3, M-phase inducer phosphatase 3 (Homo sapiens, UniProt P30307); experiment: Inhibition of human CDC25C phosphatase
T3 sequence (P30307 whole entry): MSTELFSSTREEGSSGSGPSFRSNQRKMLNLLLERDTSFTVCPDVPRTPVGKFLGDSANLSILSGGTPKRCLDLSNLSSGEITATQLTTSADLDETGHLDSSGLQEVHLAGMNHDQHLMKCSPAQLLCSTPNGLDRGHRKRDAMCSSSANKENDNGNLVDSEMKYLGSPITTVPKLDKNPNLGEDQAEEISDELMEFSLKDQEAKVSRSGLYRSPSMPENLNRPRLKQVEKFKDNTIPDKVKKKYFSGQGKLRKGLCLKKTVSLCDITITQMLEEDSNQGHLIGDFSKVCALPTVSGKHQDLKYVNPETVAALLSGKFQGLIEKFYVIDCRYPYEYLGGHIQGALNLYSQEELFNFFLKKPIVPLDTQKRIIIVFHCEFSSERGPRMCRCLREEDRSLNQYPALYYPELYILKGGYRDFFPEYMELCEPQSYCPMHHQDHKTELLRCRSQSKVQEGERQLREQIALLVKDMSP

MCF7 [9] = experiment: Antiproliferative activity against human MCF7 cells assessed as growth inhibition; format: functional, cell-based
MDA-MB-231 [10] = experiment: Antiproliferative activity against human MDA-MB-231 cells assessed as growth inhibition; format: functional, cell-based
[11] = Antiproliferative activity against human hTERT-HME1 cells assessed as growth inhibition; format: functional, cell-based
MCF7 [12] = experiment: Antiproliferative activity against human MCF7 cells; format: functional, cell-based
HepG2 [13] = experiment: Cytotoxicity against human HepG2 cells assessed as cell viability by MTT assay; format: functional, cell-based
K562 [14] = experiment: Antitumor activity against human K562 cells assessed as cell viability by MTT assay; format: functional, cell-based
DU-145 [15] = experiment: Antiproliferative activity against human DU145 cells assessed as growth inhibition; format: functional
[16] = Antiproliferative activity against human DLD1 cells assessed as growth inhibition; format: functional; conditions: DLD-1
NCI-H157 = experiment: Antiproliferative activity against human NCI-H157 cells assessed as growth inhibition; format: functional
[17] = Antiproliferative activity against human BT20 cells assessed as growth inhibition; format: functional; conditions: BT-20
K562 [18] = experiment: Antiproliferative activity against human K562 cells assessed as growth inhibition; format: functional

Structure (SMILES): NCCCCCCCCNC(=O)c1c(O)c2ccccc2oc1=O
GI50 (DU-145 [1]): < 10 µM

Structure (SMILES): CC1=CP(C(c2ccccc2)(c2ccccc2)c2ccccc2)Oc2c1c(=O)oc1ccccc21 (stereo not drawn)
IC50 (MCF7 [2]): ≤ 3.89 µg/mL
IC50 (HepG2 [3]): ≤ 3.89 µg/mL

Structure (SMILES): C/C(=N/NC(=O)c1cc2ccccc2oc1=O)c1cccnc1
IC50 (NCI-H460): 10 µM

Structure (SMILES): CCOC1(c2ccccc2)Oc2c(c(=O)oc3ccccc23)/C1=C\C(=O)c1ccccc1 (stereo not drawn)
IC50 (MCF7 [2]): 8 µM
IC50 (HCT-15): 8 µM

Structure (SMILES): O=c1oc2ccccc2c2c1C(c1cc(Br)ccc1O)SCCN2 (stereo not drawn)
IC50 (MCF7 [4]): 3.75 µg/mL
IC50 (SK-N-MC): 3.75 µg/mL (≈ 9.28 µM)
IC50 (MDA-MB-231 [5]): 3.75 µg/mL (≈ 9.28 µM)

Structure (SMILES): COc1cc(OC)cc(-c2cc3ccc(OC(C)=O)c(OC(C)=O)c3oc2=O)c1
IC50 (KB): 5.18 µM

Structure (SMILES): Cc1cc(C(=O)c2ccccc2Br)ccc1OCC(=O)NNC(=O)c1cc2ccccc2oc1=O
IC50 (MCF7 [12]): < 10 µM

Structure (SMILES): COc1ccc(-c2csc(-n3nc(C)cc3-c3cc4cc(Cl)ccc4oc3=O)n2)cc1
IC50 (HepG2 [13]): ≤ 3.25 µM

Structure (SMILES): O=C(/C=C1\c2c(c3ccccc3oc2=O)OC1(c1ccccc1)N1CCCC1)c1ccccc1 (stereo not drawn)
IC50 (MCF7 [2]): 8 µM
IC50 (HCT-15): 8 µM

Structure (SMILES): O=c1oc2c(Br)cccc2cc1S(=O)(=O)Nc1ccc(Br)cc1
GI50 (DU-145 [15]): 12 µM
GI50 [16]: 12 µM
GI50 (NCI-H157): 12 µM
GI50 [17]: 12 µM
GI50 (K562 [18]): 12 µM

Structure (SMILES): Cc1cc(-c2cc3cc(Cl)ccc3oc2=O)n(-c2nc(-c3ccc(Cl)cc3)cs2)n1
IC50 (HepG2 [13]): ≤ 3.25 µM

More lines, main results first:

IC50 (MCF7 [4]): 0.52 µM
IC50 (A549): 0.14 µM
Structure (SMILES): Cc1ccc2c(c1)C(c1ccccc1)c1c(c3ccccc3oc1=O)N2 (stereo not drawn)

IC50 [6]: ≤ 9 µM
IC50 [7]: ≤ 9 µM
IC50 [8]: ≤ 9 µM
IC50 (MCF7 [9]): ≤ 11 µM
IC50 (MDA-MB-231 [10]): ≤ 11 µM
Structure (SMILES): COc1ccc2c(CSC3=CC(=O)c4ccccc4C3=O)cc(=O)oc2c1
IC50 [11]: 18 µM

IC50 (A549): 0.05 µM
Structure (SMILES): COc1cccc(C2c3cc(C)ccc3Nc3c2c(=O)oc2ccccc32)c1 (stereo not drawn)

IC50 (MCF7 [4]): 20.2 µM
IC50 (K562 [14]): 9.3 µM
Structure (SMILES): CCc1nc([N+](=O)[O-])c(N2CCN(/C(=N/Nc3ccc4c(C)cc(=O)oc4c3)C(C)=O)CC2)n1Cc1ccccc1

IC50 (MCF7 [12]): < 10 µM
Structure (SMILES): Cc1cc(C(=O)c2ccc(Cl)cc2Cl)ccc1OCC(=O)NNC(=O)c1cc2ccccc2oc1=O

IC50 (MCF7 [12]): < 10 µM
Structure (SMILES): Cc1ccc(C(=O)c2cc(F)c(OCC(=O)NNC(=O)c3cc4ccccc4oc3=O)c(Cl)c2)cc1
